Reference: PubChem BioAssay AID248 (DTP/NCI, 2004)
Where “and” joins values, the source holds several entries; their conditions need not be identical. Equal entries are not always repeated. Inconclusive results and toxic doses are left out. No stated cut-off is given here; in the data, active means T/C of 150% or more; inactive means T/C below 125%.

System: L1210 leukemia ip in BDF1 mice, survival T/C
Experiment: NCI In Vivo Anticancer Drug Screen. Data for tumor model L1210 Leukemia (intraperitoneal) in B6D2F1 (BDF1) mice
Details: endpoint: mean survival time, higher = longer survival
In short: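 Read-out is survival time, reported as the treated-group measurement over the vehicle-control measurement.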

[1] = dose: 100.0 mg/kg/injection, schedule: Q01DX009 (ip), vehicle: Klucel (hydroxypropylcellulose) (HPC)
[2] = dose: 200.0 mg/kg/injection, schedule: Q01DX009 (ip), vehicle: Klucel (hydroxypropylcellulose) (HPC)
[3] = dose: 50.0 mg/kg/injection, schedule: Q01DX001 (ip), vehicle: saline
[4] = dose: 100.0 mg/kg/injection, schedule: Q01DX001 (ip), vehicle: saline
[5] = dose: 100.0 mg/kg/injection, schedule: Q04DX003 (ip), vehicle: Klucel (hydroxypropylcellulose) (HPC)
[6] = dose: 200.0 mg/kg/injection, schedule: Q01DX001 (ip), vehicle: saline
[7] = dose: 200.0 mg/kg/injection, schedule: Q04DX003 (ip), vehicle: Klucel (hydroxypropylcellulose) (HPC)
[8] = dose: 400.0 mg/kg/injection, schedule: Q01DX001 (ip), vehicle: saline
[9] = dose: 400.0 mg/kg/injection, schedule: Q04DX003 (ip), vehicle: Klucel (hydroxypropylcellulose) (HPC)
[10] = dose: 100.0 mg/kg/injection, schedule: Q04DX003 (ip), vehicle: saline with Tween-80
[11] = dose: 200.0 mg/kg/injection, schedule: Q01DX001 (ip), vehicle: Klucel (hydroxypropylcellulose) (HPC)
[12] = dose: 400.0 mg/kg/injection, schedule: Q01DX001 (ip), vehicle: Klucel (hydroxypropylcellulose) (HPC)
[13] = dose: 100.0 mg/kg/injection, schedule: Q01DX001 (ip), vehicle: Klucel (hydroxypropylcellulose) (HPC)
[14] = dose: 100.0 mg/kg/injection, schedule: Q04DX002 (ip), vehicle: saline with Tween-80
[15] = dose: 200.0 mg/kg/injection, schedule: Q04DX002 (ip), vehicle: saline with Tween-80
[16] = dose: 400.0 mg/kg/injection, schedule: Q04DX002 (ip), vehicle: saline with Tween-80

Measured: T/C

[Cl][Rh][Cl].c1cn[nH]c1.c1cn[nH]c1.c1cn[nH]c1.c1cn[nH]c1
inactive: dose: 12.5 mg/kg/injection, schedule: Q01DX009 (ip), vehicle: Klucel (hydroxypropylcellulose) (HPC) 98 % of control | dose: 12.5 mg/kg/injection, schedule: Q04DX003 (ip), vehicle: Klucel (hydroxypropylcellulose) (HPC) 90 % of control | dose: 25.0 mg/kg/injection, schedule: Q01DX009 (ip), vehicle: Klucel (hydroxypropylcellulose) (HPC) 89 % of control | dose: 25.0 mg/kg/injection, schedule: Q04DX003 (ip), vehicle: Klucel (hydroxypropylcellulose) (HPC) 95 % of control | dose: 50.0 mg/kg/injection, schedule: Q04DX003 (ip), vehicle: Klucel (hydroxypropylcellulose) (HPC) 102 % of control

Cc1ccccc1SC(=O)Nc1cc(C(F)(F)F)ccc1Cl
inactive: [1] 100 % of control | [2] 98 % of control | dose: 400.0 mg/kg/injection, schedule: Q01DX009 (ip), vehicle: Klucel (hydroxypropylcellulose) (HPC) 100 % of control

O=S(=O)(Nc1ccccc1)c1ccccc1C#Cc1ccccc1
inactive: dose: 100.0 mg/kg/injection, schedule: Q01DX001 (ip), vehicle: steriod suspending solution 105 % of control | dose: 200.0 mg/kg/injection, schedule: Q01DX001 (ip), vehicle: steriod suspending solution 100 % of control | dose: 400.0 mg/kg/injection, schedule: Q01DX001 (ip), vehicle: steriod suspending solution 97 % of control

ClCc1nc2ccccc2[nH]1
inactive: [3] 101 % of control | [4] 101 % of control | [5] 105 % of control | [6] 104 % of control | [7] 102 % of control | [8] 110 % of control | [9] 98 % of control

CC(=O)OC1OC(CS[As](C)C)C(OC(C)=O)C(OC(C)=O)C1OC(C)=O (stereo not given)
inactive: [5] 94 % of control | [7] 105 % of control

COc1ccc(/C=C(\C#N)c2ccc(C)cc2)cc1OC
inactive: [10] 102 % of control | dose: 200.0 mg/kg/injection, schedule: Q04DX003 (ip), vehicle: saline with Tween-80 100 % of control | dose: 400.0 mg/kg/injection, schedule: Q04DX003 (ip), vehicle: saline with Tween-80 100 % of control

Cc1ccc(S(=O)(=O)O/N=C(/C#N)c2ccccc2)cc1
inactive: dose: 100.0 mg/kg/injection, schedule: Q04DX002 (ip), vehicle: Klucel (hydroxypropylcellulose) (HPC) 111 % of control | dose: 200.0 mg/kg/injection, schedule: Q04DX002 (ip), vehicle: Klucel (hydroxypropylcellulose) (HPC) 97 % of control | dose: 400.0 mg/kg/injection, schedule: Q04DX002 (ip), vehicle: Klucel (hydroxypropylcellulose) (HPC) 101 % of control

COC(=O)c1c(Cl)c(Cl)cc(Cl)c1Cl
inactive: dose: 100.0 mg/kg/injection, schedule: Q01DX009 (ip), vehicle: saline sonified 106 % of control | [5] 93 % of control | dose: 200.0 mg/kg/injection, schedule: Q01DX009 (ip), vehicle: saline sonified 113 % of control | [7] 98 % of control | dose: 400.0 mg/kg/injection, schedule: Q01DX009 (ip), vehicle: saline sonified 107 % of control | [9] 106 % of control

COC1OCC(O)C(O)C1O (stereo not given)
inactive: [4] 92 % of control | dose: 100.0 mg/kg/injection, schedule: Q04DX003 (ip), vehicle: saline 98 % of control | [6] 95 % of control | dose: 200.0 mg/kg/injection, schedule: Q04DX003 (ip), vehicle: saline 106 % of control | [8] 95 % of control | dose: 400.0 mg/kg/injection, schedule: Q04DX003 (ip), vehicle: saline 101 % of control

COc1ccc2c3c1OC1C4(OC)CCC5(c6c(O)ccc(O)c64)C(C2)N(C)CCC315 (stereo not given)
inactive: [4] 86 % of control | [6] 96 % of control | [8] 94 % of control

Clc1ccc2c(c1)/C(=C/c1cccnc1)c1cc(Cl)cc(Cl)c1-2
inactive: [1] 93 % of control | [5] 88 % of control | [11] 94 % of control | [2] 90 % of control | [7] 95 % of control | [12] 90 % of control | [9] 88 % of control

Cc1cc(C)cc(Cc2ccc3ccccc3c2)c1
inactive: dose: 50.0 mg/kg/injection, schedule: Q01DX001 (ip), vehicle: Klucel (hydroxypropylcellulose) (HPC) 109 % of control | [13] 98 % of control | [11] 96 % of control | [12] 90 % of control

CSc1nnn(C(C)(C)C)n1
inactive: dose: 100.0 mg/kg/injection, schedule: Q01DX001 (ip), vehicle: acetone 100 % of control | dose: 200.0 mg/kg/injection, schedule: Q01DX001 (ip), vehicle: acetone 91 % of control

CCCCCCCCCCCCOC(C(=O)O)(c1ccccc1)c1ccccc1
inactive: dose: 25.0 mg/kg/injection, schedule: Q04DX003 (ip), vehicle: saline with Tween-80 100 % of control | dose: 50.0 mg/kg/injection, schedule: Q04DX003 (ip), vehicle: saline with Tween-80 91 % of control | [10] 98 % of control and 89 % of control

COc1cc(C2=N/C(=C\c3cc(Br)cc(Br)c3O)C(=O)O2)cc(OC)c1OC
inactive: dose: 25.0 mg/kg/injection, schedule: Q04DX002 (ip), vehicle: saline with Tween-80 97 % of control | dose: 50.0 mg/kg/injection, schedule: Q04DX002 (ip), vehicle: saline with Tween-80 90 % of control | [14] 90 % of control | [15] 95 % of control | [16] 95 % of control

O=[N+]([O-])c1ccc(N/N=C/C23CC4CC(CC(C4)C2)C3)c([N+](=O)[O-])c1
inactive: dose: 3.12 mg/kg/injection, schedule: Q04DX002 (ip), vehicle: Klucel (hydroxypropylcellulose) (HPC) 121 % of control | dose: 6.25 mg/kg/injection, schedule: Q04DX002 (ip), vehicle: Klucel (hydroxypropylcellulose) (HPC) 110 % of control | dose: 12.5 mg/kg/injection, schedule: Q04DX002 (ip), vehicle: Klucel (hydroxypropylcellulose) (HPC) 113 % of control | dose: 25.0 mg/kg/injection, schedule: Q04DX002 (ip), vehicle: Klucel (hydroxypropylcellulose) (HPC) 94 % of control | [13] 98 % of control

CC(=N/Nc1ccc([N+](=O)[O-])cc1[N+](=O)[O-])/C(C)=C/C1C=CCCC1(C)C (stereo not given)
inactive: [14] 100 % of control | [15] 103 % of control | [16] 96 % of control

Cc1ccc(CC(=O)c2c(C)[nH]c3ccccc23)cc1C
inactive: [3] 108 % of control | [4] 96 % of control | [6] 96 % of control | [8] 96 % of control

C[C@]12C[C@H](O)[C@H]3[C@@H](CCC4=CC(=O)CC[C@@]43C)[C@@H]1CC[C@@H]2C(=O)CO
inactive: dose: 25.0 mg/kg/injection, schedule: Q01DX009 (sc), vehicle: steriod suspending solution 101 % of control | dose: 25.0 mg/kg/injection, schedule: Q01DX010 (sc), vehicle: steriod suspending solution 102 % of control | dose: 50.0 mg/kg/injection, schedule: Q01DX009 (sc), vehicle: steriod suspending solution 95 % of control and 103 % of control | dose: 50.0 mg/kg/injection, schedule: Q01DX010 (sc), vehicle: steriod suspending solution 104 % of control | dose: 100.0 mg/kg/injection, schedule: Q01DX009 (sc), vehicle: steriod suspending solution 94 % of control and 107 % of control | dose: 100.0 mg/kg/injection, schedule: Q01DX010 (sc), vehicle: steriod suspending solution 102 % of control | dose: 200.0 mg/kg/injection, schedule: Q01DX009 (sc), vehicle: steriod suspending solution 105 % of control and 113 % of control | dose: 200.0 mg/kg/injection, schedule: Q01DX010 (sc), vehicle: steriod suspending solution 102 % of control

Cc1c(C(=O)Nc2ccc(C3=NCCN3)cc2)cccc1C(=O)Nc1ccc(C2=NCCN2)cc1
inactive: dose: 42.0 mg/kg/injection, schedule: Q01DX Z (ip), vehicle: carboxymethylcellulose (CMC) 104 % of control | dose: 85.0 mg/kg/injection, schedule: Q01DX Z (ip), vehicle: carboxymethylcellulose (CMC) 104 % of control

CCOC(=O)C[n+]1ccccc1C
inactive: dose: 50.0 mg/kg/injection, schedule: Q04DX002 (ip), vehicle: saline 90 % of control | dose: 100.0 mg/kg/injection, schedule: Q04DX002 (ip), vehicle: saline 97 % of control | dose: 200.0 mg/kg/injection, schedule: Q04DX002 (ip), vehicle: saline 93 % of control

C[N+](C)(C)CN1C(=O)c2ccccc2C1=O
inactive: dose: 50.0 mg/kg/injection, schedule: Q01DX009 (ip), vehicle: saline 101 % of control | dose: 100.0 mg/kg/injection, schedule: Q01DX009 (ip), vehicle: saline 97 % of control | dose: 200.0 mg/kg/injection, schedule: Q01DX009 (ip), vehicle: saline 88 % of control
